According to publication PMC4994518 (Journal of medicinal chemistry, 2010):

Legend:
[1] = test system: MDA-MB-231 breast tumor cell line; assay: Growth inhibition of MDA-MB-231 breast tumor cell line; type: cell-based, human; settings: for inhibition at 10 µM: Homo sapiens, MDA-MB-231, read-out: % growth inhibition at 10 μM
Human recombinant PDE 5A = Human recombinant PDE 5A (Homo sapiens, UniProt O76074); assay: Phosphodiesterase assay; type: biochemical; settings: for % PDE 5 inhibition at 10 μM: recombinant human PDE5, 10 μM, duplicate values

COC(=O)[C@H]1Cc2c([nH]c3ccccc23)[C@H](c2ccc(Cl)c(Cl)c2)N1 [Compound 6, (1S,3R)Methyl-1-(3,4-dichlorophenyl)-2,3,4,9-tetrahydro-1H-β-carboline-3-carboxylate]
IC50 ([1]; read-out: growth inhibition IC50 (μM) and CI at p < 0.05, MDA-MB-231, at least 8 concentrations, quadruple replicates, CI in brackets): < 10 µM

COC(=O)[C@H]1Cc2c([nH]c3ccccc23)[C@@H](c2c(Cl)cccc2Cl)N1 [Compound 9, (1R,3R)Methyl-1-(2,6-dichlorophenyl)-2,3,4,9-tetrahydro-1H-β-carboline-3 carboxylate]
% PDE 5 inhibition at 10 μM (Human recombinant PDE 5A): inactive

COC(=O)[C@@H]1Cc2c([nH]c3ccccc23)[C@H](c2c(Cl)cccc2Cl)N1 [Compound 10, (1S,3S)Methyl-1-(2,6-dichlorophenyl)-2,3,4,9-tetrahydro-1H-β-carboline-3-carboxylate]
% PDE 5 inhibition at 10 μM (Human recombinant PDE 5A): inactive

CCN1C(=O)[C@@H]2Cc3c([nH]c4ccccc34)[C@@H](c3ccc(Cl)cc3Cl)N2C1=O [Compound 14, (5R,11aS) 5-(2,4-Dichlorophenyl)-2-ethyl-5,6,11,11a-tetrahydro-1H-imidazo [1′,5′:1,6] pyrido[3,4-b]indole-1,3(2H)-dione]
selectivity index (Human recombinant PDE 5A; IC50 of PDE11A (cGMP)/IC50 of PDE5A (cGMP)): > 200

COC(=O)[C@H]1Cc2c([nH]c3ccccc23)[C@@H](c2ccc(Cl)cc2Cl)N1C(=O)CCl [Compound 31, (1R,3R)Methyl 1-(2,4-Dichlorophenyl)-2-(2-chloroacetyl)-2,3,4,9-tetrahydro-1H-β-carboline-3-carboxylate]
inhibition at 10 µM [1]: 98%

COC(=O)[C@H]1Cc2c([nH]c3ccccc23)[C@H](c2ccc(Cl)cc2Cl)N1C(=O)CCl [Compound 32, (1S,3R)Methyl 1-(2,4-Dichlorophenyl)-2-(2-chloroacetyl)-2,3,4,9-tetrahydro-1H-β-carboline-3-carboxylate]
inhibition at 10 µM [1]: 98% | growth inhibitory potency relative to 31 ([1]; MDA-MB-231): ~10 times
